According to paper PMC8804135 (Neurotherapeutics, 2021):
Numbered stars: 1 amine (or outer) side, 2 acyl side, 3 side chain; on linkers, the order of the positions; unused ones are H or OH. Bridge positions count the residues as written; N and C are the ends. Square brackets hold non-standard residues; d marks the D form. Ends that are not written are not given here. Peptide text beside a SMILES is read from it. dAbu(3S-yl) = C[C@@H]([C@@H](N[*:1])C(=O)[*:2])[*:3]; pGlu = O=C1CC[C@@H](C(=O)O)N1

Experiments:
Type in all cases: cell-based
GAL2R [1] = molecular target: T1, GAL2R (Homo sapiens, UniProt O43603); assay: PathHunter eXpress β-arrestin recruitment assay, GAL2R; parameters: expressed in transfected cells; details: Table 3; CHO-K1 cells co-expressing GAL2R and β-arrestin 2; 10 µM to 5 nM; (average) ratio, (n) in cell = number of assays; NA = ratio above 1000
T1 sequence (O43603 1-387): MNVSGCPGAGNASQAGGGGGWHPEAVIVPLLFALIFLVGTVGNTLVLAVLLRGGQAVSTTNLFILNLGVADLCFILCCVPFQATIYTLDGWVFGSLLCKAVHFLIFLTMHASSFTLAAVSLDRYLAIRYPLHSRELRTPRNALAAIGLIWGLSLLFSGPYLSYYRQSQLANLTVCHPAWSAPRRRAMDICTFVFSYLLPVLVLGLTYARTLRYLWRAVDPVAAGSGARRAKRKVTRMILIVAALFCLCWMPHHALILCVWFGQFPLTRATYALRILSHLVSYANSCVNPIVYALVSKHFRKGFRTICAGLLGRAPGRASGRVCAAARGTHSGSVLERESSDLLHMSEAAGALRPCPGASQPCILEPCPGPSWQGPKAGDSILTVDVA
Description: (§1) To evaluate the ability of lanthipeptides to recruit ß-arrestins via GAL1R or via GAL2R, we used the PathHunter® eXpress GAL1R, CHO-K1, β-arrestin GPCR Assay and the PathHunter® eXpress GAL2R, CHO-K1, β-arrestin, GPCR Assay from Eurofins-DiscoverX. The assays were performed according to the manufacturer’s instructions. Briefly, for one assay, CHO-K1 cells co-expressing GAL1R or GAL2R and β-arrestin (isoform 2) were diluted in AssayComplete™ Cell Plating Reagent, and 100 µl was seeded into each well of a 96-well plate. The plate was incubated at 37 °C, 5% CO2 in a humidified incubator. A serial 3 × dilution of the lanthipeptides in water was made (10 µM to 5 nM). After 48 h of incubation, 10 µl of the serial dilutions was applied to the cells in duplicate. The agonists were incubated for 90 min at 37 °C. Next, 55 µL of Working Detection Solution was added, and after 1 h of incubation at room temperature in the dark, the chemiluminescent signal was read with a Synergy HT Biotek reader.

GAL1R [2] = molecular target: T2, GAL1R (Homo sapiens, UniProt P47211); assay: Label-free dynamic mass redistribution assay, SY5Y-R1 cells; parameters: expressed in transfected cells; details: GAL1R-expressing SH-SY5Y cells; 1.6 nM to 5 µM
T2 sequence (P47211 1-349): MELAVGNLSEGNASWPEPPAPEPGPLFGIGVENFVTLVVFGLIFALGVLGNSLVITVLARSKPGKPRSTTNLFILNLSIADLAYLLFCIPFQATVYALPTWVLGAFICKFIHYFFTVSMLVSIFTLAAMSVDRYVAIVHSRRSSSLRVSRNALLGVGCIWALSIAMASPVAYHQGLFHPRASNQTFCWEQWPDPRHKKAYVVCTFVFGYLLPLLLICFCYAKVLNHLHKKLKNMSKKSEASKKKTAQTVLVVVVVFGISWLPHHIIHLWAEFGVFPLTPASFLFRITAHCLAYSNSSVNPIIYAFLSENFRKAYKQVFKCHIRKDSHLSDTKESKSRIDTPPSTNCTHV
Description: SH-SY5Y cells stably expressing low levels of either human GAL1R (SY5Y-R1) or GAL2R (SY5Y-R2) and HEK293 cells expressing human GAL3R (HEK-R3) were seeded in EnSpire LFC-[…] well plates (Perkin Elmer) at a concentration of 12,000 cells per well and cultured overnight at 37 °C and 5% CO2. The medium was aspired, and the cells were washed four times with Hank’s balanced salt solution (HBSS) (+ calcium, + magnesium) supplemented with HEPES (20 mM), and the final volume was adjusted to 30 µl per well. The plate was allowed to equilibrate to assay temperature for 1 h in the EnSpire multimode reader (Perkin Elmer). Galanin-(1–30) (GL Biochem) was dissolved and diluted in water. […] A baseline read was first generated by taking 4 measurements before ligands were added. The plate was measured between 30 and 70 repeats, and each treatment was performed in triplicate. […] EC50 values were calculated using Prism 8.2.0 (GraphPad Software Inc.). The values are provided as means of all independent experiments.

GAL1R [3] = molecular target: T2, GAL1R; assay: PathHunter eXpress β-arrestin recruitment assay, GAL1R; parameters: expressed in transfected cells; details: Table 3; CHO-K1 cells co-expressing GAL1R and β-arrestin 2; 10 µM to 5 nM; (average) ratio, (n) in cell = number of assays; NA = ratio above 1000
Description: as §1

GAL2R [4] = molecular target: T1, GAL2R; assay: Fluo-4 Direct calcium assay (Ca efflux) in HEK293 cells overexpressing GAL2R; details: Table 3; HEK293 cells stably overexpressing GAL2R; Fluo-4, from 10 µM; (average) ratio, (n) in cell = number of assays; NA = ratio above 1000
Description: Calcium efflux was measured by using a Fluo-4 Direct Calcium Assay purchased from Thermo Fisher Scientific. HEK293 cells with stable overexpression of GAL2R (HEKR2) (kindly provided by Harald Dargatz, Molecular, Cellular and Pharmacobiology Section, Institute of Pharmaceutical Biology, University of Bonn, 53,115 Bonn, Germany) were used for analysis of the lanthipeptides. HEKR2 cells were seeded in a 96-well plate and grown overnight in DMEM supplemented with 10% FBS, 1% penicillin–streptomycin, 100 µg/ml Normocin, and 500 µg/ml G418 at 37 °C, 5% CO2 in a humidified incubator.
The next day, when the cells were nearly confluent, an equal amount of 2 × Fluo-4 Direct™ calcium reagent loading solution, containing 5 mM probenecid, was added to the wells, and the plate was incubated for 1 h at 37 °C. A serial 3 × dilution of the agonist compound in water was made, and 10 µl of the serial dilutions was applied to the cells in duplicate. The starting concentration of agonist in the assay was 10 µM. After 1–2 h of incubation at room temperature, the fluorescence was measured with excitation at 485/20 nm and emission at 528/20 nm with a Synergy HT Biotek reader.

GAL1R [5] = molecular target: T2, GAL1R; assay: cAMP Hunter eXpress GAL1R CHO-K1 GPCR assay (inhibition of forskolin-induced cAMP); parameters: expressed in transfected cells; details: Table 3; CHO-K1 cells expressing GAL1R; 20 µM forskolin; 10 µM to 5 nM; (average) ratio, (n) in cell = number of assays; NA = ratio above 1000
Description: To evaluate the ability of lanthipeptides to […] via GAL1R signaling, we used the cAMP Hunter™ eXpress GAL1R CHO-K1 GPCR Assay from Eurofins-DiscoverX. The assay was performed according to the manufacturer’s instructions. Briefly, for one assay, CHO-K1 cells expressing GAL1R were diluted in AssayComplete™ Cell Plating 2 Reagent, and 100 µl was seeded into each well of a 96-well plate. The plate was incubated at 37 °C, 5% CO2 in a humidified incubator. After 24 h of incubation, the media was aspirated, and 45 µl cell assay buffer/antibody mixture was added to all wells. […] Fifteen µl of the serial dilutions was applied in duplicates to the cells. The concentration of forskolin in the assay was 20 µM. The agonists were incubated for 30 min at 37 °C. Next, 15 µL Antibody Solution and 60 μL cAMP Working Detection Solution were added, and the plate was incubated for 1 h in the dark at room temperature. Finally, 60 μL cAMP Solution A was added and, after 3 h of incubation in the dark at room temperature, the chemiluminescent signal was read with a Synergy HT Biotek reader.

Row | Compound | EC50 ratios to Gal-(1-15), GAL2R ß-Arrestin (GAL2R [1]) | Stimulation of GAL1R, DMR in SY5YR1 cells (GAL1R [2]) | EC50 ratios to Gal-(1-15), GAL1R ß-Arrestin (GAL1R [3]) | EC50 ratios to Gal-(1-15), GAL2R Ca-efflux (GAL2R [4]) | EC50 ratios to Gal-(1-15), GAL1R cAMP (GAL1R [5])
1 | CC(C)C[C@H](NC(=O)[C@H](CC(C)C)NC(=O)[C@H](Cc1ccc(O)cc1)NC(=O)CNC(=O)[C@H](C)NC(=O)[C@H](C)NC(=O)[C@H](CC(N)=O)NC(=O)[C@H](CC(C)C)NC(=O)[C@H](CC(N)=O)NC(=O)[C@H](Cc1c[nH]c2ccccc12)NC(=O)[C@@H]1CCC(=O)N1)C(=O)N[C@@H](C)C(=O)N[C@H]1C(=O)N[C@@H](Cc2c[nH]cn2)C(=O)N[C@@H](C)C(=O)N[C@H](C(=O)NCC(=O)N[C@@H](CC(N)=O)C(=O)N[C@@H](Cc2c[nH]cn2)C(=O)N[C@@H](CCCNC(=N)N)C(=O)O)CS[C@H]1C [Variant M50b] ([pGlu]WNLNAAGYLLA[dAbu(3S-yl)]HACGNHR-OH; thioether 13-16; C-terminus assumed) | 4.7 (3) | stimulate GAL2R only, not GAL1R | NA (1) (NA is not active; ratios above 1000 were considered to be not active) | 2.8 (3) | NA (2) (NA is not active; ratios above 1000 were considered to be not active)
2 | GWNLNAAGYLLGPTAVC (also: sidechain bridge or staple (positions not given here)) [Variant M85, methyllanthionine-containing galanin variant produced in L. lactis] | 6.2 (1) | – | 18.0 (1) | 4.7 (1) | 11.6 (1)
3 | [pGlu]WNLNAAGYLLGATAVC (also: sidechain bridge or staple (positions not given here)) [Variant M91, pyroglutamate- and methyllanthionine-containing galanin variant] | 1.5 (1) | – | 3 (1) | 1.3 (1) | NA (1) (NA is not active; ratios above 1000 were considered to be not active)
4 | [pGlu]WNLNAAGYLLGATAVCNH (also: sidechain bridge or staple (positions not given here)) [Variant M54tr, pyroglutamate- and methyllanthionine-containing galanin variant] | 1 (1) | – | NA (1) (NA is not active; ratios above 1000 were considered to be not active) | 1.2 (2) | 16 (1)
5 | [pGlu]WNLNAAGYLLGATAVGCHR (also: sidechain bridge or staple (positions not given here)) [Variant M76b, pyroglutamate- and methyllanthionine-containing galanin variant] | 0.5 (1) | – | 9.6 (1) | 1.0 (1) | 12.2 (1)
6 | [pGlu]WNLNAAGYLLGPHTVGCHR (also: sidechain bridge or staple (positions not given here)) [Variant M83, pyroglutamate- and methyllanthionine-containing galanin variant] | 78 (1) | – | 123 (1) | 7.3 (1) | NA (1) (NA is not active; ratios above 1000 were considered to be not active)
7 | [pGlu]WNLNAAGYLLGPTAVC (also: sidechain bridge or staple (positions not given here)) [Variant M87, pyroglutamate- and methyllanthionine-containing galanin variant] | 4.8 (1) | – | 260 (1) | 1.9 (2) | NA (1) (NA is not active; ratios above 1000 were considered to be not active)
